This note sets out measurements from patent publication US9766227B2, “Screening method for substance having hemocyte maturation acceleration action” (Bloom Technology Co., Ltd., priority 2010, dated 2017).

Read-outs that look alike come from different tables or passages of the source.

In test [1] the test system is K562 cells. The note with it: 0.125 mM, with 30 μM hemin. From the text:
Cells were collected on days 0, 3, 6, 12, and 15, and the ability to assist induction of erythrocyte differentiation was examined using cell surface markers, glycophorin A (CD235a) and transferrin receptor (CD71), as indicators.
CD235(+/−)/CD71(++) represent K562 proerythroblast-like cells, CD235(+)/CD71(++) represent K562 basophilic erythroblast-like cells, CD235(+)/CD71(+) represent K562 polychromatic erythroblast-like cells, and CD235(+)/CD71(+/−) represent K562 orthochromatic erythroblast-like cells or reticulocytes. K562 cells are CD71-non-positive cells positioned upstream of pro-erythroblasts.
Using the same system that uses K562 cells for evaluating induction of differentiation, CD235/CD71 which are the existing indicators for induction of erythrocyte differentiation, and the new indicators lactoferrin (Lf)/C5a receptor (CD88) were compared and examined. Cells were collected on days 0, 3, 6, 12, and 15, and the ability to induce differentiation into erythrocytes was examined using Lf/CD88 as the indicators.
Using the same system that uses K562 cells for evaluating induction of differentiation, CD235/CD71 which are the existing indicators for induction of erythrocyte differentiation, and the new indicators FAS ligand (CD178)/C5a receptor (CD88) were compared and examined. Cells were collected on days 0, 3, 6, 12, and 15, and the ability to induce differentiation into erythrocytes was examined using CD178/CD88 as the indicator.

Test [2] has as its system K562 cells. The experiment in a line: Expression pattern of RGS proteins in hemin-stimulated K562 cell maturation, Western blotting. The note with it: 30 μM hemin, days 3, 6, 9 and 12. In kind it is cell-based. Here is the method:
K562 cells (5×10^6 cells/10 mL) were cultured by adding 4.5 g glucose/30 μM hemin to a DMEM solvent, and 2.5 mL of the same solvent was added at 3-day intervals. Cells were collected on days 3, 6, 9, and 12, and were dissolved in 100 μL of SDS Loading Buffer (6 M Urea). 10 μL were run on a 12% SDS-GEL, and after transferring to a blotting membrane, this was reacted with respective antibodies to the R4 RGS family (herein RGS1/RGS3/RGS16/RGS18) and another RGS family (herein, RGS14).

For manganese chloride, in test [1] (markers CD178/CD88), the “induction of differentiation after erythroblast formation” value (from here on “induction of differentiation”) is on record as “inhibited” and the “number of days taken for maturation to form erythroblasts” value was “reduced”. Besides, in test [1] (markers CD235/CD71), the “induction of differentiation” value is on record as “inhibited” and the “number of days taken for maturation until erythroblast formation” value is listed as “reduced”. In test [1] (markers Lf/CD88), the “induction of differentiation” value was “inhibited” and the “number of days taken for maturation until erythroblast formation” value was “reduced”.
In the case of hemin, in test [2], the “expression of RGS14” value is given as “did not change” and the “expression of the R4 RGS family (RGS1/RGS3/RGS16/RGS18)” value is given as “increased”.
